In EP2818472A1, “Imidazo[4,5-c]pyridine and pyrrolo[3,2-c]pyridine compounds as G-protein-coupled receptor kinase 5 (GRK5) modulators” (Max-Planck-Gesellschaft zur Förderung der Wissenschaften …, priority 2013, dated 2014):

test system: beta-TC6 cells; assay: Insulin HTRF assay (relative activity Ar) in beta-TC6 cells; type: cell-based, mouse; settings: Mus musculus, Beta-TC6, 4 h, insulin HTRF, supernatant of beta-TC6 cells, incubation with test compound at 37°C for 2, 3, 4h; read-out: Ar (relative activity)
Procedure, shortened: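 beta-TC6 cells (15k/well, seeded 24 or 48 h) washed, then exposed to compound in induction buffer (0.5% DMSO final) for 2, 3 or 4 h at 37°C.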

First: Cn1cc(-c2cc3cnc(Nc4cccc(NS(C)(=O)=O)c4)cc3n2Cc2ccccc2)cn1 [Compound 156, N-[3-[[1-benzyl-2-(1-methylpyrazol-4-yl)pyrrolo[3,2-c]pyridin-6-yl]amino]phenyl]methanesulfonamide]
Second: CC(=O)Nc1cccc(Nc2cc3c(cn2)cc(-c2cnn(C)c2)n3Cc2ccccc2)c1 [Compound 157, N-[3-[[1-benzyl-2-(1-methylpyrazol-4-yl)pyrrolo[3,2-c]pyridin-6-yl]amino]phenyl]acetamide]
The Emax of the first is lower: 30 to 50% for the first, 50 to 100% for the second.

`COc1cc(Nc2cc3c(cn2)cc(-c2cccc(N(C)C(C)=O)c2)n3C)cc(OC)c1OC` [Compound 158, N-methyl-N-[3-[1-methyl-6-(3,4,5-trimethoxyanilino)pyrrolo[3,2-c]pyridin-2-yl]phenyl]acetamide] and `COc1ccc(Nc2cc3c(cn2)cc(-c2cccc(N(C)C(C)=O)c2)n3C)cc1OC` [Compound 160, N-[3-[6-(3,4-dimethoxyanilino)-1-methyl-pyrrolo[3,2-c]pyridin-2-yl]phenyl]-N-methyl-acetamide] fall in the same range of Emax: 50 to 100% for the first, 50 to 100% for the second.

`CC(=O)N(C)c1cccc(-c2cc3cnc(Nc4ccc(C(N)=O)cc4)cc3n2C)c1` [Compound 159, 4-[[2-[3-[acetyl(methyl)amino]phenyl]-1-methyl-pyrrolo[3,2-c]pyridin-6-yl]amino]benzamide] and `CC(=O)N(C)c1cccc(-c2cc3cnc(Nc4ccc(C(=O)N(C)C)cc4)cc3n2C)c1` [Compound 172, 4-[[2-[3-[acetyl(methyl)amino]phenyl]-1-methyl-pyrrolo[3,2-c]pyridin-6-yl]amino]-N,N-dimethyl-benzamide] fall in the same range of Emax: 50 to 100% for the first, 50 to 100% for the second.

First: COc1ccc(Nc2cc3c(cn2)cc(-c2cccc(N(C)C(C)=O)c2)n3C)cn1 [Compound 161, N-[3-[6-[(6-methoxy-3-pyridyl)amino]-1-methyl-pyrrolo[3,2-c]pyridin-2-yl]phenyl]-N-methyl-acetamide]
Second: COc1ccc(Nc2cc3c(cn2)cc(-c2cccc(N(C)C(C)=O)c2)n3C)cc1 [Compound 166, N-[3-[6-(4-methoxyanilino)-1-methyl-pyrrolo[3,2-c]pyridin-2-yl]phenyl]-N-methyl-acetamide]
The Emax of the first is higher: 50 to 100% for the first, 30 to 50% for the second.

`CC(=O)N(C)c1cccc(-c2cc3cnc(Nc4cccnc4)cc3n2C)c1` [Compound 162, N-methyl-N-[3-[1-methyl-6-(3-pyridylamino)pyrrolo[3,2-c]pyridin-2-yl]phenyl]acetamide] and `CC(=O)N(C)c1cccc(-c2cc3cnc(Nc4cccc(O)c4)cc3n2C)c1` [Compound 170, N-[3-[6-(3-hydroxyanilino)-1-methyl-pyrrolo[3,2-c]pyridin-2-yl]phenyl]-N-methyl-acetamide] fall in the same range of Emax: 50 to 100% for the first, 50 to 100% for the second.

`CC(=O)N(C)c1cccc(-c2cc3cnc(Nc4ccc(N5CCOCC5)cc4)cc3n2C)c1` [Compound 163, N-methyl-N-[3-[1-methyl-6-(4-morpholinoanilino)pyrrolo[3,2-c]pyridin-2-yl]phenyl]acetamide] and `CC(=O)N(C)c1cccc(-c2cc3cnc(Nc4ccc(N5CCN(C)CC5)cc4)cc3n2C)c1` [Compound 164, N-methyl-N-[3-[1-methyl-6-[4-(4-methylpiperazin-1-yl)anilino]pyrrolo[3,2-c]pyridin-2-yl]phenyl]acetamide] fall in the same range of Emax: 50 to 100% for the first, 50 to 100% for the second.

Compared with `CC(=O)N(C)c1cccc(-c2cc3cnc(Nc4cccc(N(C)C)c4)cc3n2C)c1` [Compound 165, N-[3-[6-[3-(dimethylamino)anilino]-1-methyl-pyrrolo[3,2-c]pyridin-2-yl]phenyl]-N-methyl-acetamide], `CC(=O)N(C)c1cccc(-c2cc3cnc(Nc4ccc5c(c4)OCO5)cc3n2C)c1` [Compound 169, N-[3-[6-(1,3-benzodioxol-5-ylamino)-1-methyl-pyrrolo[3,2-c]pyridin-2-yl]phenyl]-N-methyl-acetamide] is lower in Emax: over 100% for the first, 30 to 50% for the second.

`CC(=O)N(C)c1cccc(-c2cc3cnc(Nc4ccccn4)cc3n2C)c1` [Compound 167, N-methyl-N-[3-[1-methyl-6-(2-pyridylamino)pyrrolo[3,2-c]pyridin-2-yl]phenyl]acetamide] and `CC(=O)N(C)c1cccc(-c2cc3cnc(Nc4ccc(C#N)cc4)cc3n2C)c1` [Compound 168, N-[3-[6-(4-cyanoanilino)-1-methyl-pyrrolo[3,2-c]pyridin-2-yl]phenyl]-N-methyl-acetamide] fall in the same range of Emax: 30 to 50% for the first, 30 to 50% for the second.

First: CC(=O)N(C)c1cccc(-c2cc3cnc(N4CCOCC4)cc3n2C)c1 [Compound 171, N-methyl-N-[3-(1-methyl-6-morpholino-pyrrolo[3,2-c]pyridin-2-yl)phenyl]acetamide]
Second: Cn1c(-c2cccc(Cl)c2)cc2c(N3CCOCC3)nccc21 [Compound 195, 4-[2-(3-chlorophenyl)-1-methyl-pyrrolo[3,2-c]pyridin-4-yl]morpholine]
The Emax of the first is higher: 50 to 100% for the first, 30 to 50% for the second.

`CC(=O)N(C)c1cccc(-c2cc3cnc(Nc4ccc(S(C)(=O)=O)cc4)cc3n2C)c1` [Compound 173, N-methyl-N-[3-[1-methyl-6-(4-methylsulfonylanilino)pyrrolo[3,2-c]pyridin-2-yl]phenyl]acetamide] and `CS(=O)(=O)c1ccc(Nc2nccc3[nH]c(-c4cccc(C(F)(F)F)c4)cc23)cc1` [Compound 197, N-(4-methylsulfonylphenyl)-2-[3-(trifluoromethyl)phenyl]-1H-pyrrolo[3,2-c]pyridin-4-amine] fall in the same range of Emax: 30 to 50% for the first, 30 to 50% for the second.

`COc1cc(Nc2cc3[nH]c(-c4ccccc4)cc3cn2)cc(OC)c1OC` [Compound 174, 2-phenyl-N-(3,4,5-trimethoxyphenyl)-1H-pyrrolo[3,2-c]pyridin-6-amine] and `COc1ccc(Nc2cc3[nH]c(-c4ccccc4)cc3cn2)cc1OC` [Compound 175, N-(3,4-dimethoxyphenyl)-2-phenyl-1 H-pyrrolo[3,2-c]pyridin-6-amine] fall in the same range of Emax: 50 to 100% for the first, 50 to 100% for the second.

`c1ccc(-c2cc3cnc(Nc4ccc(N5CCOCC5)cc4)cc3[nH]2)cc1` [Compound 176, N-(4-morpholinophenyl)-2-phenyl-1H-pyrrolo[3,2-c]pyridin-6-amine] and `CN1CCN(c2ccc(Nc3cc4[nH]c(-c5ccccc5)cc4cn3)cc2)CC1` [Compound 177, N-[4-(4-methylpiperazin-1-yl)phenyl]-2-phenyl-1H-pyrrolo[3,2-c]pyridin-6-amine] fall in the same range of Emax: 50 to 100% for the first, 50 to 100% for the second.

`c1ccc(-c2cc3cnc(Nc4ccncc4)cc3[nH]2)cc1` [Compound 178, 2-phenyl-N-(4-pyridyl)-1H-pyrrolo[3,2-c]pyridin-6-amine] and `Fc1ccc(Nc2cc3[nH]c(-c4ccccc4)cc3cn2)cc1` [Compound 179, N-(4-fluorophenyl)-2-phenyl-1H-pyrrolo[3,2-c]pyridin-6-amine] fall in the same range of Emax: 30 to 50% for the first, 30 to 50% for the second.

`Oc1cccc(Nc2cc3[nH]c(-c4ccccc4)cc3cn2)c1` [Compound 180, 3-[(2-phenyl-1H-pyrrolo[3,2-c]pyridin-6-yl)amino]phenol] and `CC(=O)Nc1cccc(Nc2cc3[nH]c(-c4ccccc4)cc3cn2)c1` [Compound 183, N-[3-[(2-phenyl-1H-pyrrolo[3,2-c]pyridin-6-yl)amino]phenyl]acetamide] fall in the same range of Emax: 50 to 100% for the first, 50 to 100% for the second.

First: c1ccc(-c2cc3cnc(N4CCOCC4)cc3[nH]2)cc1 [Compound 181, 4-(2-phenyl-1H-pyrrolo[3,2-c]pyridin-6-yl)morpholine]
Second: Fc1cccc(-c2cc3c(N4CCOCC4)nccc3[nH]2)c1 [Compound 187, 4-[2-(3-fluorophenyl)-1H-pyrrolo[3,2-c]pyridin-4-yl]morpholine]
The Emax of the first is higher: over 100% for the first, 30 to 50% for the second.

`CN(C)C(=O)c1ccc(Nc2cc3[nH]c(-c4ccccc4)cc3cn2)cc1` [Compound 182, N,N-dimethyl-4-[(2-phenyl-1H-pyrrolo[3,2-c]pyridin-6-yl)amino]benzamide] and `CC(=O)Nc1ccc(Nc2nccc3[nH]c(-c4cccc(F)c4)cc23)cc1` [Compound 198, N-[4-[[2-(3-fluorophenyl)-1H-pyrrolo[3,2-c]pyridin-4-yl]amino]phenyl]acetamide] fall in the same range of Emax: 50 to 100% for the first, 50 to 100% for the second.

`c1ccc(Cn2c(-c3ccccc3)cc3cnc(Nc4ccncn4)cc32)cc1` [Compound 184, 1-benzyl-2-phenyl-N-pyrimidin-4-yl-pyrrolo[3,2-c]pyridin-6-amine] and `Fc1cccc(-c2cc3c(Nc4cccnc4)nccc3[nH]2)c1` [Compound 200, 2-(3-fluorophenyl)-N-(3-pyridyl)-1H-pyrrolo[3,2-c]pyridin-4-amine] fall in the same range of Emax: 30 to 50% for the first, 30 to 50% for the second.

`CN(C)C(=O)c1ccc(-c2cc3c(N4CCOCC4)nccc3n2C)cc1` [Compound 188, N,N-dimethyl-4-(1-methyl-4-morpholino-pyrrolo[3,2-c]pyridin-2-yl)benzamide] and `COc1cc(OC)cc(-c2cc3c(N4CCOCC4)nccc3n2C)c1` [Compound 192, 4-[2-(3,5-dimethoxyphenyl)-1-methyl-pyrrolo[3,2-c]pyridin-4-yl]morpholine] fall in the same range of Emax: 0 to 30% for the first, 0 to 30% for the second.

First: CN(C)c1ccc(-c2cc3c(N4CCOCC4)nccc3[nH]2)cc1 [Compound 189, N,N-dimethyl-4-(4-morpholino-1H-pyrrolo[3,2-c]pyridin-2-yl)aniline]
Second: c1cc2[nH]c(-c3ccsc3)cc2c(N2CCOCC2)n1 [Compound 191, 4-[2-(3-thienyl)-1H-pyrrolo[3,2-c]pyridin-4-yl]morpholine]
The Emax of the first is higher: over 100% for the first, 50 to 100% for the second.

First: COc1ccccc1-c1cc2c(N3CCOCC3)nccc2[nH]1 [Compound 193, 4-[2-(2-methoxyphenyl)-1H-pyrrolo[3,2-c]pyridin-4-yl]morpholine]
Second: CN1CCN(c2ccc(Nc3nccc4[nH]c(-c5cccc(F)c5)cc34)cc2)CC1 [Compound 201, 2-(3-fluorophenyl)-N-[4-(4-methylpiperazin-1-yl)phenyl]-1H-pyrrolo[3,2-c]pyridin-4-amine]
The Emax of the first is higher: 50 to 100% for the first, 30 to 50% for the second.

`FC(F)(F)c1cccc(-c2cc3c(Nc4cccnc4)nccc3[nH]2)c1` [Compound 196, N-(3-pyridyl)-2-[3-(trifluoromethyl)phenyl]-1H-pyrrolo[3,2-c]pyridin-4-amine] and `Oc1ccc(Nc2nccc3[nH]c(-c4cccc(F)c4)cc23)cc1` [Compound 199, 4-[[2-(3-fluorophenyl)-1H-pyrrolo[3,2-c]pyridin-4-yl]amino]phenol] fall in the same range of Emax: 50 to 100% for the first, 50 to 100% for the second.
